Data on 26 compounds can be found in ChEMBL document CHEMBL4813920, “Metronidazole-conjugates: A comprehensive review of recent developments towards synthesis and medicinal perspective” (Eur J Med Chem, 2021).

Values after ≈ are worked out from the molar mass of the structure shown.

One test relates to Candida albicans. The experiment in a line: Antifungal activity against Candida albicans ATCC 10231 incubated for 24 hrs by broth microdilution method. It is filed as functional.
The target of another test is T1, Pancreatic alpha-amylase (Sus scrofa, UniProt P00690).
T1 sequence (P00690 whole entry): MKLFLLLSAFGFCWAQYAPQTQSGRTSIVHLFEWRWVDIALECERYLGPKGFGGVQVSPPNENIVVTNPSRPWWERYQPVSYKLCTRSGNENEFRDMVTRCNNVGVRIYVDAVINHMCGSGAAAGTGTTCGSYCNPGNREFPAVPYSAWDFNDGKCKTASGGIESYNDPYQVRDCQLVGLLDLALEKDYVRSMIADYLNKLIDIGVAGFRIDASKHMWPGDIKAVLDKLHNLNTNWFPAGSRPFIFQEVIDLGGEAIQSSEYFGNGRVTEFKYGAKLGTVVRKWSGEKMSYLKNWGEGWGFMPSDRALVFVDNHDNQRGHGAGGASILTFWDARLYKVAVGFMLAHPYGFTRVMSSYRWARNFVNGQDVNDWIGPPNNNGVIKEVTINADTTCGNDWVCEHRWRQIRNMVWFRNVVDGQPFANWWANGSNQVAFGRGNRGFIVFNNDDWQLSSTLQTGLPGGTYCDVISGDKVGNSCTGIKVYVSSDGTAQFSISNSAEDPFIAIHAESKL
The experiment in a line: Inhibition of porcine pancreatic alpha-amylase using 1% starch as substrate preincubated for 10 mins followed by substrate addition and measured after 10 mins by absorbance method.

A further test concerns Staphylococcus aureus. Description: Antibacterial activity against Staphylococcus aureus ATCC 6538P incubated for 24 hrs by broth microdilution method. It is filed as functional. (Broth dilution looks for growth in wells or tubes with falling amounts of substance.)
A further test deals with Escherichia coli. The experiment in a line: Antibacterial activity against Escherichia coli ATCC 8739 incubated for 24 hrs by broth microdilution method. It is filed as functional.
Test [1] concerns Entamoeba histolytica. The experiment in a line: Antiamoebic activity against Entamoeba histolytica HK9 ATCC 30015 incubated for 72 hrs by trypan blue staining based assay. Particulars: ATCC 30015, 72 h. It is filed as functional, organism-based.
The test system of another test is Giardia intestinalis. The experiment in a line: Antigiardial activity against Giardia intestinalis WB ATCC 30957 by trypan blue staining based assay. Conditions: Giardia duodenalis. It is filed as functional, organism-based.
In test [2] the test system is Entamoeba histolytica. The experiment in a line: Antiamoebic activity against Entamoeba histolytica HK9 ATCC 30015 by trypan blue staining based assay. It is filed as functional, organism-based.
Another test addresses Carbonic anhydrase 2 (Homo sapiens, UniProt P00918). The experiment in a line: Inhibition of recombinant human carbonic anhydrase 2 preincubated with enzyme for 15 mins by phenol red dye based stopped flow CO2 hydration assay.
The target of another test is Carbonic anhydrase 9 (Homo sapiens, UniProt Q16790). The experiment in a line: Inhibition of recombinant human carbonic anhydrase 9 preincubated with enzyme for 15 mins by phenol red dye based stopped flow CO2 hydration assay.
A further test has as its system MDA-MB-231. Description: Antiproliferative activity against human MDA-MB-231 cells after 24 hrs by MTT assay. The format is functional, cell-based. Particulars: MDA-MB-231, 24 h. In general terms: Tetrazolium dyes change colour on reduction, which living cells bring about.
The subject of another test is Clostridium sporogenes. Description: Antimicrobial activity against Clostridium sporogenes ATCC 19404 incubated for 24 hrs by broth microdilution method. The format is functional.
A further test relates to Leishmania mexicana. Description: Antileishmanial activity against promastigote form of Leishmania mexicana MHOM/BZ/82/Bel21 measured for 7 days by cell counting method. It is filed as functional. Particulars: MHOM/BZ/82/Bel21, 168 h, time 7 day.
The next test deals with Leishmania braziliensis. Description: Antileishmanial activity against promastigote form of Leishmania braziliensis MHOM/BR/75/M2903 measured for 7 days by cell counting method. Particulars: MHOM/BR/75/M2903, 168 h, time 7 day. The format is functional.
A further test deals with HEK293. The experiment in a line: Cytotoxicity against HEK293 cells after 24 hrs by MTT assay. The format is cell-based. Particulars: Homo sapiens, HEK293, 24 h.

In the test on Candida albicans, `Cc1ccc(/C=N/CCn2c([N+](=O)[O-])cnc2C)cc1` came in with an MIC of 170 µM (≈ 46.3 µg/mL).

As to `Cc1ncc([N+](=O)[O-])n1CCOCc1ccncc1`, the IC50 at Pancreatic alpha-amylase was below 2980 nM.

In the case of `COc1ccc(COCCn2c([N+](=O)[O-])cnc2C)cc1`, the IC50 on Pancreatic alpha-amylase is below 2980 nM. Regarding `CC1(C)S[C@@H]2[C@H](NC(=O)[C@H](N)c3ccccc3)C(=O)N2[C@H]1C(=O)O` [AMPICILLIN], the figures for the MIC against Staphylococcus aureus and in the test with Escherichia coli were 0.036 µM (≈ 0.0126 µg/mL) and 2.3 µM (≈ 0.804 µg/mL), respectively.

In turn, `Cc1ncc([N+](=O)[O-])n1CCN1CCN(c2ccnc3cc(Cl)ccc23)CC1` yielded an IC50 in the test with Entamoeba histolytica [1] of 0.96 µM.

As for `Cc1ncc([N+](=O)[O-])n1CCOCc1cccc([N+](=O)[O-])c1`, at Pancreatic alpha-amylase, the IC50 is below 2980 nM. The same measure, in the same setting: in the case of `Cc1cc(COCCn2c([N+](=O)[O-])cnc2C)ccc1[N+](=O)[O-]` it was below 2980 nM. Regarding `Cn1c(-c2ccncc2)n[nH]c1=S`, the values for the IC50 with Giardia intestinalis and in the test with Entamoeba histolytica [2] were 1560 nM and 1370 nM, respectively.

On to `Cc1ncc([N+](=O)[O-])n1CCOCc1ccc(F)cc1`, for which, on Pancreatic alpha-amylase, the IC50 was below 2980 nM. On the same count and under the same terms, in the case of `Cc1ncc([N+](=O)[O-])n1CCOCc1ccc(Cl)cc1` it was below 2980 nM; in that of `Cc1ncc([N+](=O)[O-])n1CCOCc1ccccc1Cl`, below 2980 nM; in that of `Cc1ncc([N+](=O)[O-])n1CCOCc1ccc(Br)cc1`, below 2980 nM.

`Cc1ncc([N+](=O)[O-])n1CCOc1cccc(/C=N\c2ccc(S(=O)(=O)Nc3nccs3)cc2)c1`: the IC50 at Carbonic anhydrase 2 was 89 nM; at Carbonic anhydrase 9 it was 38 nM.

Turning to `Cc1ncc([N+](=O)[O-])n1CCOCc1ccccc1Br`, the IC50 against Pancreatic alpha-amylase was below 2980 nM. `CCOC(=O)[C@H](CC(=O)O)NC(=O)Cn1c([N+](=O)[O-])cnc1C`: the half-inhibitory concentration (IC50) stood at 2260 nM with Giardia intestinalis and 2210 nM with Entamoeba histolytica [2]. For `Cc1ncc([N+](=O)[O-])n1CC/N=C/c1cc(Cl)ccc1O`, the MIC against Staphylococcus aureus was 760 µM (≈ 235 µg/mL); in the test on Candida albicans it was 170 µM (≈ 52.5 µg/mL); against Escherichia coli, 760 µM (≈ 235 µg/mL). In the test with MDA-MB-231, `CC1=CC(=O)c2c(O)cccc2C1=O` [PLUMBAGIN] registered an IC50 of 4.4 µM. With `COc1ccc(-n2c(SCCn3c([N+](=O)[O-])cnc3C)nnc2-c2cccnc2)cc1`, the figures for the IC50 in the test on Giardia intestinalis and in the test with Entamoeba histolytica [2] were 1780 nM and 480 nM, respectively. The compound also came in with an MIC with Clostridium sporogenes of 17.8 µM (≈ 7.79 µg/mL). Turning to `Cc1ncc([N+](=O)[O-])n1CCSc1nnc(-c2ccncc2)n1-c1cccc2ccccc12`, in the test on Clostridium sporogenes, the MIC was determined as 17.1 µM (≈ 7.82 µg/mL). In the test with Entamoeba histolytica [1], `Cc1ncc([N+](=O)[O-])n1CCNC(=O)/C=C/c1ccc([N+](=O)[O-])o1` had an IC50 of 5.32 µM. On Pancreatic alpha-amylase, `Cc1ncc([N+](=O)[O-])n1CCOCc1cccc(Cl)c1` came in with an IC50 below 2980 nM. In the case of `Cc1ncc([N+](=O)[O-])n1CCOc1ccc(/C=N\c2ccc(S(=O)(=O)Nc3nccs3)cc2)cc1`, the IC50 is 16 nM at Carbonic anhydrase 2 and 93 nM on Carbonic anhydrase 9. With `Cc1ncc([N+](=O)[O-])n1CCSCOC(=O)c1ccc(O)c(O)c1`, the results for the LC50 in the test on Leishmania mexicana and in the test with Leishmania braziliensis were 11 µM and 13 µM, respectively. In the case of `Cc1ncc([N+](=O)[O-])n1CCOCc1ccc(C#N)cc1`, the IC50 on Pancreatic alpha-amylase was below 2980 nM. Take `Cc1ncc([N+](=O)[O-])n1Cc1cn(CCCCCN2C(=O)C(=O)c3cc(Cl)ccc32)nn1`: the IC50 with HEK293 is 12.1 µM. `Cc1ncc([N+](=O)[O-])n1CCn1c(-c2ccncc2)nn(-c2ccccc2)c1=S`: the IC50 in the test with Giardia intestinalis stood at 760 nM; with Entamoeba histolytica [2], 3270 nM. In the test on Clostridium sporogenes, this compound yielded an MIC of 29.9 µM (≈ 12.2 µg/mL).

As a reminder, the MIC is the least concentration at which growth counts as inhibited. A lower MIC goes with inhibition by little substance. The IC50 is the concentration needed to halve the response being measured. A word on the LC50: it is the concentration that kills 50% of the test population. Low readings indicate greater toxicity, high ones lower toxicity.
